We go through 1 compound from PMC10782225 (The FASEB Journal, 2023).

Molecules are shown by their SMILES.

The assay has as its target T1, unaltered α7β2‐nAChR (Homo sapiens, UniProt P17787+P36544).
T1 construct: expressed in transfected cells; host or cells: Xenopus laevis oocytes, cRNA injection
The assay can be described thus: ACh concentration‐response curve, TEVC, unaltered α7β2‐nAChR. It is filed as cell-based. The note with it: mean ± SEM of 15–19 oocytes. The text has this:
Stimulations lasted 3 s, and were applied sequentially, 60 s apart.

T1 sequence (P36544 23-502): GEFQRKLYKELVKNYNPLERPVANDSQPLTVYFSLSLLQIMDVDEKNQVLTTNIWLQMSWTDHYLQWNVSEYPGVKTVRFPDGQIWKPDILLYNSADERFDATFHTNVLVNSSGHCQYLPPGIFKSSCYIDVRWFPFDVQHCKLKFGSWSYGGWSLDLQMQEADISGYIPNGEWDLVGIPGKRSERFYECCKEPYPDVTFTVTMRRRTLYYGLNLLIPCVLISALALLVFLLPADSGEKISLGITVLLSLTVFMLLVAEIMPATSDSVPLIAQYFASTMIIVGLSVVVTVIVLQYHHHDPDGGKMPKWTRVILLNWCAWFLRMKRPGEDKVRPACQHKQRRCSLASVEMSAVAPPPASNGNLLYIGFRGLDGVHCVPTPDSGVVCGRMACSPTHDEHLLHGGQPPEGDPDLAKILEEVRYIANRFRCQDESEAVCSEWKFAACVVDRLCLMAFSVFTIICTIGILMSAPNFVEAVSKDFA
T1 sequence (P17787 26-502): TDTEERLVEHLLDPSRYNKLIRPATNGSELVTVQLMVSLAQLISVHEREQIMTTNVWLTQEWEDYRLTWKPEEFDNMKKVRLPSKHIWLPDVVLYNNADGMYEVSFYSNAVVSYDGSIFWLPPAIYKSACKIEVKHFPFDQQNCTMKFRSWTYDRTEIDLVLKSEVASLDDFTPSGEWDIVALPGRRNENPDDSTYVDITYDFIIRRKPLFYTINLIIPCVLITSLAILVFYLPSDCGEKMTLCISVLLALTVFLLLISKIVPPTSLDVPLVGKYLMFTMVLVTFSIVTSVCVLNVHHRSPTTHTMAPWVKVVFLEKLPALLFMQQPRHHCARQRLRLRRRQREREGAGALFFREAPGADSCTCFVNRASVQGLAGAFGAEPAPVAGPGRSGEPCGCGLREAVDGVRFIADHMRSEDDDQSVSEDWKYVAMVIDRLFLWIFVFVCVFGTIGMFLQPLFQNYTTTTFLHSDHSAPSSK

As to `CC(=O)OCC[N+](C)(C)C` [ACh, acetylcholine], the “Imax, maximum function induced by ACh, unaltered α7β2‐nAChR” value (ACh 10 μM – 10 mM, half‐log steps, 3 s, 60 s apart) is recorded as 1353 ± 149 nA. For the same compound, under “logistic fit per oocyte”, the “hillslope (nH), unaltered α7β2‐nAChR” value was determined as 1.03 ± 0.07.
